This is an account of results in the NIST ThermoML archive (doi:10.1021/je201152j).

Numbers after ± are expanded uncertainties.

The nature of data set [1]: refractive index (Na D-line) (dimensionless). The settings on record: 298.15 K; 101.33 kPa; Liquid; Standard Abbe refractometry.
For data set [2] the following is noted: 298.15 K, 101.33 kPa, Liquid; for viscosity: Capillary tube (Ostwald / Ubbelohde) method; for speed of sound: Sing-around technique in a fixed-path interferometer; for mass density: Vibrating tube method.

In general, refractive index refers to the speed of light in vacuum divided by its phase velocity in the sample. Usually viscosity stands for the internal friction of a fluid under shear. Usually speed of sound stands for how fast a sound wave travels through the sample. The term mass density denotes mass per unit of volume.

In the case of `CN1CCCC1=O` [N-methylpyrrolidone], in data set [1], the refractive index stood at 1.468 ± 0.0004. Moreover, in data set [2], the viscosity was 1.681 ± 0.013 mPa·s, the speed of sound was determined as 1545.2 ± 1.9 m/s and the mass density was found to be 1028.3 ± 0.5 kg/m3.
In the case of `CCO` [ethanol], the refractive index in data set [1] was 1.3595 ± 0.0004. Moreover, in data set [2], the viscosity was found to be 1.091 ± 0.008 mPa·s, the speed of sound came out at 1144.2 ± 1.6 m/s and the mass density came to 785.21 ± 0.42 kg/m3.
